“Also recorded” adds a separate entry of the source.
Assays:
dendritic spines = test: Golgi staining of dendritic spines after stereotactic injection into the cortex; type: in vivo; conditions: 3 days later, compared to ACSF controls
Excerpt: Fibrinogen injection in the cortex reduces dendritic spine density. Dendritic spines are the major site of excitatory synaptic inputs in the brain (Nimchinsky E A, et al., Annu Rev Physiol. 64:313-353). Novel spine formation and pre-existing spine elimination reflect the structural consequences of dynamic changes in neuronal activity at the cellular level (Grutzendler J & Gan W B (2006) NeuroRx 3(4):489-496; Trachtenberg J T et al., (2002) Nature 420(6917):788-794; Grutzendler J et al. (2002) Nature 420(6917):812-816.). Thus, dynamic changes in spine numbers and morphology are considered the cellular mechanisms underlying memory and learning (Holtmaat A et al. (2006) Nature 441 (7096):979-983). To assess the effect of a local concentration of fibrinogen on spine morphology, we injected fibrinogen by stereotactic injection into the cortex, and the brains were examined 3 days later by Golgi staining. Fibrinogen reduced the density of dendritic spines by 33%, compared to ACSF controls (FIG. 4).

wild-type mice [1] = test: Morris water maze after chronic intracerebroventricular infusion of fibrinogen; type: in vivo; conditions: ICV infusion 5 mg/ml, 14-day Alzet pump; tested 24 hours after last learning trial; vs ACSF
Description: Fibrinogen was delivered to the central nervous system (CNS) of wild-type mice by ICY. Briefly, fibrinogen (5 mg/ml) or artificial cerebrospinal fluid (ACSF), a control, was infused into the CNS of the mice using 14-day Alzet pumps through a cannula implanted in the right lateral ventricle. The concentration of the fibrinogen solution was selected based on its physiological range in the plasma. Five days after pump implantation, the mice were trained in the Morris water maze and tested after removal of the target platform 24 hours after the last learning trial. […] To control for visual discriminative ability, the same mice located a clearly visible black platform 2 h after the last trial.

spinal cord = test: Demyelination and microglia activation after stereotactic injection into the spinal cord; type: in vivo, wild-type mice; conditions: single injection at physiological concentrations; after 7 days
Excerpt: Either ACSF or fibrinogen was stereotactically injected at physiological concentrations into the spinal cord of wild-type mice (each Group n=3-4). […] The % area for IBA-1 staining indicates a percentage of the mean area of CD3 or IBA-1 immunoreactivity in the predefined area on spinal cord sections.

microglia [2] = test: Acute microglial responses in vivo after injection into the cortex with a glass microelectrode; set-up: species or system Cx3cr1GFPI+ mice
Description: To directly address whether fibrinogen alone was sufficient to trigger acute microglial responses in the CNS, fibrinogen was injected into the cortex of Cx3cr1GFPI+ mice using a glass microelectrode. Control electrodes were also used containing ACSF or albumin (5 mg/ml). Injection of […] of a 3-6 mg/ml fibrinogen solution, which approximates the physiological concentration of fibrinogen in plasma, caused rapid extension of microglial processes toward the tip of the electrode within […] of the injection. The size of the fibrin deposit remains unaltered, and the microglial response to fibrin persists for at least 6 hours.
The levels of microglia were quantified in vivo usingantibodies against IBA-1 (Ahmed Z, supra).

wild-type mice [3] = test: Contextual fear conditioning test after stereotactic injection in the dentate gyrus; type: in vivo; conditions: single injection 5 μg in dentate gyrus; day 7 post-injection; vs ACSF
Description: To assess the effect of an increase in the local concentration of fibrinogen in a specific region of interest in the brain, mice received a single stereotactic injection of either 5 μg fibrinogen (1 μl of 5 mg/ml fibrinogen) or 1 μl control (ACSF) in the dentate gyrus. The effects on memory retrieval were assessed in the contextual fear conditioning test (Riley C et al., (2012) Expert review of neurotherapeutics 12(3):323-333.). Mice were placed in a novel environment and given a brief foot shock (training day; day 6 post injection). Memory was assessed by placing the mice in the same environment again one day after the training day (testing day, day 7 post-injection) and freezing (anxiety) behavior was recorded. Percentage of freezing is a direct measure of memory retrieval.

microglia [4] = test: Microglial activation 3 days after stereotactic injections of fibrinogen or plasma; type: in vivo, mice; conditions: 3 days after stereotactic injection; fibrinogen 6-10 mg/ml
Description: FIG. 8 is a bar graph illustrating the quantification of microglial immunoreactivity from mouse brain sections 3 days after stereotactic injections of fibrinogen, ACSF or albumin protein control, or plasma isolated from wt, Fib-l-, Fib_390-396A mice (n=6 mice per condition). The bar graph represents the mean (*P<0.05, **P<0.01, one-way ANOVA).
Higher concentrations of fibrinogen were introduced (6-10 mg/ml), as well as ACSF, albumin, or plasma isolated from wt, Fib-l-, Fib_390-396A mice (n=6 mice per condition).

corpus callosum = test: Demyelination and microglial activation after stereotactic injection into the corpus callosum; type: in vivo, mice
Excerpt: Fibrinogen was stereotactically injected at physiological concentrations into the corpus callosum.
The experiment described in Example 4 was repeated using different mouse strains to investigate the possibility that the neuronal damage induced by fibrinogen was limited to mice with particular genetic backgrounds. […] This is particularly significant as in the traditional model for multiple sclerosis, experimental allergic encephalomyelitis (EAE), different strains of mice show varying degrees of susceptibility to EAE. EAE is a T cell-mediated autoimmune disease that can be induced in experimental animals by immunization with myelin antigens. The susceptibility to myelin antigens ranges from highly susceptible SJL/J mice to resistant B10.S mice.

[5] = test system: neurons in the dentate gyrus; test: NeuN and IBA-1 antibody staining of hippocampus after injection in the dentate gyrus; type: in vivo, mice; conditions: 5 μg in dentate gyrus, day 7 post injection

fibrinogen was tested, and the “reduction of density of dendritic spines” value (dendritic spines) was 33%, the “memory recall (crossings of the target platform, time spent in the target quadrant)” value (wild-type mice [1]) was “impaired memory recall” and the “demyelination in the spinal cord” value (spinal cord) was “spontaneously induced demyelination”. For the same substance, the “microglia activation in the spinal cord (IBA-1 staining)” value (spinal cord) was “microglia activation”, the “microglial responses (quantification)” value (microglia [2]; 3-6 mg/ml, compared to ACSF or albumin) was “robust and statistically significant increase” and the “persistence of microglial response to fibrin” value (microglia [2]; 5-10 μl of 3-6 mg/ml solution into cortex) was “at least 6 hours”. For the same substance, the “percentage of freezing (memory retrieval)” value (wild-type mice [3]) was “significant decrease; also recorded: impaired memory retrieval”, the “microglial activation 3 days after injection” value (microglia [4]) was “formed a deposit that is surrounded by microglial processes” and the “demyelination in the corpus callosum” value (corpus callosum; C57BL/6 mice (B6)) was “significant demyelination”. For the same substance, the “microglial activation in the corpus callosum” value (corpus callosum; C57BL/6 mice (B6)) was “microglial activation”, the “demyelination in the corpus callosum” value (corpus callosum; SJL/J mice (SJL)) was “significant demyelination” and the “microglial activation in the corpus callosum” value (corpus callosum; SJL/J mice (SJL)) was “microglial activation”. The “time to induction of microglial activation” value (corpus callosum; corpus callosum injection) was no more than 1 days, the “demyelination in the corpus callosum” value (corpus callosum; single injection at physiological concentrations, after 7 days) was “induced demyelination” and the “microglial activation (IBA-1 antibody staining)” value ([5]; hippocampal tissue) was “increased microglial activation; also recorded: increase in IBA-1 staining”. For the same substance, the “NeuN immunoreactivity (neuronal loss)” value ([5]; hippocampus) was “dramatic decrease; also recorded: reduction in NeuN staining”.

Source: patent US9669112B2, “Animal model of neuronal injury” (The J. David Gladstone Institutes, priority 2012, dated 2017)
